Measured values from US6162828A, “Cysteine protease inhibitor” (Takeda Chemical Industries, Ltd., priority 1995, dated 2000).
Where a SMILES comes first, the peptide text is derived from it. [ ]: non-standard residue; d: D form. The star is where a group is joined. Fmoc = O=C(OCC1c2ccccc2-c2ccccc21)*; Aib = CC(C)(N)C(=O)O

Biological target: T1, ICE (IL-1β converting enzyme), recombinant (Homo sapiens, UniProt P29466)
T1 construct: positions corresponding to molecular weights of 25,000 and 15,800; made in house; host or cells: Sf9 insect cells (baculovirus, pVL-ICE)
T1 sequence (P29466 120-297 limits assumed): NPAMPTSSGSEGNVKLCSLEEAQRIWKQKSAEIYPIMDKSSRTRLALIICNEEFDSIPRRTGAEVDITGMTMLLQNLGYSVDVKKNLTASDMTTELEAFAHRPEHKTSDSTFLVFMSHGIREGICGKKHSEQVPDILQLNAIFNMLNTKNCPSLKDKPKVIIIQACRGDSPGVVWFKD
T1 sequence (P29466 317-404 limits assumed): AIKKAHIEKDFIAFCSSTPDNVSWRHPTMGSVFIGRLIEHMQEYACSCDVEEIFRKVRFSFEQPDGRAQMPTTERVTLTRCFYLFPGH
Experiment: Determination of ICE-inhibiting activity (fluorogenic substrate Ac-Y-V-A-D-MCA)
Type: biochemical
Settings: recombinant ICE enzyme solution, 37° C. for 20 minutes, read-out: ICE-inhibiting activity in terms of IC50 value
Protocol: Two ml of the ICE expression recombinant virus suspension as prepared in Reference Example 5 was added to the insect cell Sf9 cultured in 2 1 of Sf900 medium containing 5% fetal calf serum (FCS) (1.5×10^6 cells/ml) to cause infection. Post-infection cultivation was conducted at 27° C. in a spinner flask for 4 days. Cultured cells were recovered (hereinafter all operations conducted on ice), washed 3 times with PBS (-), and suspended in a hypotonic buffer (20 mM KCl, 25 mM HEPES, pH 7.4, 5 MM MgCl2, 1 MM EDTA, 1 MM PMSF, 10 μg/ml pepstatin and leupeptine) to 10^8 cells/ml. After the suspension was kept standing on ice for 20 minutes, cells were disrupted (25 times) using a Dounce homogenizer. Disrupted cells were removed via centrifugation; ammonium sulfate was added to the supernatant to 40% saturation; the precipitate fraction was removed via centrifugation. Ammonium sulfate was further added to 80% saturation; the precipitate was recovered. The precipitate was dissolved in buffer A (20 mM KCl, 25 mM HEPES, pH 7.4, 5 mM EDTA, 2 mM DTT, 1 mM PMSF, 0.1% NP-40, 10% glycerol) and dialyzed against buffer A overnight. […]
After completion of the reaction, the fluorescence intensity of free aminomethylcoumarin was determined at a wavelength of 450 nm via excitation at a wavelength of 365 nm, using a fluorometer FCA (produced by Baxter). […]

- IC50: 19 nM
Structure (SMILES): CC(C)[C@H](NC(=O)OCC1c2ccccc2-c2ccccc21)C(=O)NC(C)(C)C(=O)N[C@H](C=O)CC(=O)O [Example 60, Fmoc-Val-Aib-NH--CH(CHO)CH2 COOH] (Fmoc-Val-[Aib]-Asp-aldehyde)
